From article PMC8391988 (2021)

Tests used:
[1] = test system: poly dAdT–poly dAdT (DNA, polymer) AT; assay: fluorimetric titration, Scatchard; conditions: Na+ (sodium cacodylate, I = 0.05 M); pH 7.0; apparent; per phosphate; n fixed at 0.2; dye 1.3–1.5 × 10^-7 M; per base
[2] = test system: poly dG–poly dC (DNA, polymer) G/C; assay: fluorimetric titration, Scatchard; conditions: Na+ (sodium cacodylate, I = 0.05 M); pH 7.0; apparent; per phosphate; n fixed at 0.2; dye 1.3–1.5 × 10^-7 M; per base
[3] = test system: poly dA–poly dT (DNA, polymer) A/T; assay: fluorimetric titration, Scatchard; conditions: Na+ (sodium cacodylate, I = 0.05 M); pH 7.0; apparent; per phosphate; n fixed at 0.2; dye 1.3–1.5 × 10^-7 M; per base
[4] = test system: poly rG–poly rC (RNA, polymer) G/C; assay: fluorimetric titration, Scatchard; conditions: Na+ (sodium cacodylate, I = 0.05 M); pH 7.0; apparent; per phosphate; n fixed at 0.2; dye 1.3–1.5 × 10^-7 M; per base
[5] = test system: poly rA–poly rU (RNA, polymer) A/U; assay: UV thermal melting at 260 nm; conditions: Na+ (sodium cacodylate, I = 0.05 M), pH 7.0, polynucleotide 1–2 × 10^-5 M, per base
[6] = test system: poly dAdT–poly dAdT (DNA, polymer) AT; assay: UV thermal melting at 260 nm; conditions: Na+ (sodium cacodylate, I = 0.05 M); pH 7.0; r = [compound]/[phosphate] = 0.2; polynucleotide 1–2 × 10^-5 M; per base
[7] = test system: poly rA–poly rU (RNA, polymer) A/U; assay: fluorimetric titration, Scatchard; conditions: Na+ (sodium cacodylate, I = 0.05 M); pH 7.0; apparent; per phosphate; n fixed at 0.2; dye 1.3–1.5 × 10^-7 M; per base
[8] = test system: poly dGdC–poly dGdC (DNA, polymer) GC; assay: fluorimetric titration, Scatchard; conditions: Na+ (sodium cacodylate, I = 0.05 M); pH 7.0; apparent; per phosphate; n fixed at 0.2; dye 1.3–1.5 × 10^-7 M; per base
[9] = r = [compound]/[phosphate] = 0.2

SMILES: CC(O)C[n+]1c(C=C2C=CN(CCC[N+](C)(C)CCC[N+](C)(C)C)c3ccccc32)sc2ccccc21 (stereo not drawn)
- log Ks [1]: 6.65
- log Ks [2]: 6.79
- log Ks [3]: 6.41
- log Ks [4]: 5.23
- ΔTm [5, 9]: 24.0 °C
- ΔTm [6]: 28.6 °C
- log Ks [7]: 6.11
- log Ks [8]: 6.98

SMILES: CC(O)C[n+]1c(C=C2C=CN(CCC[N+](C)(C)CCC[N+](C)(C)CCCN3C=CC(=Cc4sc5ccccc5[n+]4CC(C)O)c4ccccc43)c3ccccc32)sc2ccccc21 (stereo not drawn)
- log Ks [1]: 7.23
- log Ks [2]: 7.55
- log Ks [3]: 6.19
- log Ks [4]: 4.94
- ΔTm [5, 9]: 3.0 °C
- ΔTm [6]: 8.9 °C
- log Ks [7]: 7.15
- log Ks [8]: 7.64

SMILES: CC(O)C[n+]1c(C=C2C=CN(CCC[N+]3(C)CCC(CCCC4CC[N+](C)(CCCN5C=CC(=Cc6sc7ccccc7[n+]6CC(C)O)c6ccc(Cl)cc65)CC4)CC3)c3cc(Cl)ccc32)sc2ccccc21 (stereo not drawn)
- log Ks [1]: 6.05
- log Ks [2]: 7.41
- log Ks [3]: 5.91
- log Ks [4]: 4.95
- ΔTm [5, 9]: 0.6 °C
- ΔTm [6]: 7.1 °C
- log Ks [7]: 6.14
- log Ks [8]: 7.40

SMILES: CC(O)C[n+]1c(C=C2C=CN(CCC[N+]3(C)CCC(CCCC4CC[N+](C)(CCCN5C=CC(=Cc6sc7ccccc7[n+]6CC(C)O)c6ccccc65)CC4)CC3)c3ccccc32)sc2ccccc21 (stereo not drawn)
- log Ks [1]: 6.98
- log Ks [2]: 6.63
- log Ks [3]: 5.89
- log Ks [4]: 4.79
- ΔTm [5, 9]: 0 °C
- ΔTm [6]: 10.7 °C
- log Ks [7]: 6.14
- log Ks [8]: 7.20

SMILES: CC(O)C[n+]1c(C=C2C=CN(CCC[n+]3ccc(CCCc4cc[n+](CCCN5C=CC(=Cc6sc7ccccc7[n+]6CC(C)O)c6ccccc65)cc4)cc3)c3ccccc32)sc2ccccc21 (stereo not drawn)
- log Ks [1]: 6.68
- log Ks [2]: 6.78
- log Ks [3]: 6.23
- log Ks [4]: 4.76
- ΔTm ([5]; r = 0.1, destabilised (−19.1) at r = 0.2): 10.6 °C
- log Ks [7]: 6.22
- log Ks [8]: 7.04
